Results from US8067424B2, “Selective inhibitors for cyclin-dependent kinases” (Emory University, priority 2007, dated 2011).
Where two headings read alike, the source gives them in different places.

Tests used:
JNK3 = JNK3 (Homo sapiens, UniProt P53779); assay: Kinase screen: JNK3 alpha 1 assay; assay type: biochemical; conditions: read-out: Mean Remaining Enzyme Activity (%)
Method: Generally, the same procedure was used for all assays. Since the total assay volume was 25.5 microliters, 0.5 microliters of inhibitors at 51× assay concentration were added to the plates before any other addition.
The basic procedure was to add 0.5 microliters inhibitor/control in DMSO to plate. Fifteen microliters of enzyme/substrate/buffer mix were added and incubated for 5 min. Ten microliters MgATP at the relevant concentration were added and incubated for 30 min. The assay was stopped by adding 5 microliters of 3% orthophosphoric acid. The assay was transferred to a p81 filter plate and read in a scintillation counter of 30 sec/well. Note that this assay procedure was not followed for MKK1, which instead involved a two-step assay, and PKC alpha, which required the addition of lipid vesicles.
JNK3 alpha 1 assay: JNK3 alpha 1(5-20 mU diluted in 50 mM Tris (pH 7.5), 0.1 mM EGTA, 1 mg/ml BSA, 0.1% b-mercaptoethanol) was assayed against ATF2 (activating transcription factor in a final volume of 25.5 μl in 50 mM Tris pH 7.5, 0.1 mM EGTA, 0.1% b-Mercaptoethanol, ATF2 (3 μM), 10 mM magnesium acetate and 0.05 mM [33P-g-ATP] (500-1000 cpm/pmole) and incubated for 30 min at room temperature. Assays were stopped by addition of 5 μl of 0.5 M (3%) orthophosphoric acid and then harvested onto P81 Unifilter plates with a wash buffer of 50 mM orthophosphoric acid.

OVCAR-5 = assay: cells; conditions: Homo sapiens
SK-OV-3 = assay: cells; conditions: Homo sapiens
HL-60(TB) = conditions: for Mean Optical Densities / Percent Growth: HL-60(TB)
SK-MEL-28 [1] = tested on: SK-MEL-28
SK-MEL-28 [2] = assay: cells; conditions: Homo sapiens
ACHN = assay: cells; conditions: Homo sapiens
SR = assay: cells; conditions: Homo sapiens
HCT-15 = assay: cells; conditions: Homo sapiens
OVCAR-8 = assay: cells; conditions: Homo sapiens
NCI-H23 = assay: cells; conditions: Homo sapiens
SF-539 = assay: cells; conditions: Homo sapiens
NCI-H460 [3] = tested on: NCI-H460
T-47D = conditions: for Mean Optical Densities / Percent Growth: T-47D
NCI-H460 [4] = assay: cells; conditions: Homo sapiens
[5] = SK-MEL-28, log10 concentration −4.0
[6] = SK-MEL-28, log10 concentration −5.0
[7] = SK-MEL-28, log10 concentration −6.0
[8] = SK-MEL-28, log10 concentration −7.0
[9] = SK-MEL-28, log10 concentration −8.0
[10] = SF-295, log10 concentration −4.0
[11] = SF-295, log10 concentration −5.0
[12] = SF-295, log10 concentration −6.0
[13] = SF-295, log10 concentration −7.0
[14] = SF-295, log10 concentration −8.0
[15] = HCT-116, log10 concentration −4.0
[16] = HCT-116, log10 concentration −5.0
[17] = HCT-116, log10 concentration −6.0
[18] = HCT-116, log10 concentration −7.0
[19] = HCT-116, log10 concentration −8.0
[20] = NCI-H460, log10 concentration −4.0
[21] = NCI-H460, log10 concentration −5.0
[22] = NCI-H460, log10 concentration −6.0
[23] = NCI-H460, log10 concentration −7.0
[24] = NCI-H460, log10 concentration −8.0
[25] = SK-MEL-2, log10 concentration −4.0
[26] = SK-MEL-2, log10 concentration −5.0
[27] = SK-MEL-2, log10 concentration −6.0
[28] = SK-MEL-2, log10 concentration −7.0
[29] = SK-MEL-2, log10 concentration −8.0

Chain of JNK3 (P53779 1-422 isoform P53779-2, species assumed): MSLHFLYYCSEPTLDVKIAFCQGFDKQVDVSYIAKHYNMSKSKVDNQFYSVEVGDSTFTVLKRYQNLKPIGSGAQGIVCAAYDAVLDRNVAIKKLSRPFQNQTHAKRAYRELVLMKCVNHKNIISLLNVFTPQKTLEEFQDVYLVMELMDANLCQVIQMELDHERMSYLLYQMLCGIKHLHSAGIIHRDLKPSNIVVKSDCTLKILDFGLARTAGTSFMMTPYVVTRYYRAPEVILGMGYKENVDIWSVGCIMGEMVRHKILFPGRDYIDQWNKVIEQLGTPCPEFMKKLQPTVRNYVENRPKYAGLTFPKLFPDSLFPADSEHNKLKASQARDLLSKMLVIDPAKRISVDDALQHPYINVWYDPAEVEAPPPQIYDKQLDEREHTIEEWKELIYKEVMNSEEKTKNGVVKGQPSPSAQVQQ

SMILES: CC(C)c1cnn2c(NCc3ccccc3)cc(NCCCCCCCN)nc12 [BS-181]
- remaining activity at 10 µM (JNK3): 128%

SMILES: CC(C)c1cnn2c(NCc3ccccc3)cc(N[C@@H](CO)[C@H](O)CO)nc12 [ICEC0318, (3S)-3-(7-(Benzylamino)-3-isopropylpyrazolo[1,5-a]pyrimidin-5-ylamino)butane-1,2,4-triol]
- GI50 (OVCAR-5; OVCAR-5): 305 nM
- CC50 (OVCAR-5; OVCAR-5, read-out: LC50): > 100000 nM
- GI50 (SK-OV-3; SK-OV-3): 565 nM
- CC50 (SK-OV-3; SK-OV-3, read-out: LC50): > 100000 nM
- TGI (HL-60(TB); HL-60(TB) (Leukemia)): 6.07E−7
- Mean Optical Densities (HL-60(TB); log10 concentration −4.0): 0.495
- Percent Growth (HL-60(TB); log10 concentration −4.0): −2%
- Mean Optical Densities (HL-60(TB); log10 concentration −5.0): 0.484
- Percent Growth (HL-60(TB); log10 concentration −5.0): −4%
- Mean Optical Densities (HL-60(TB); log10 concentration −6.0): 0.407
- Percent Growth (HL-60(TB); log10 concentration −6.0): −19%
- Mean Optical Densities (HL-60(TB); log10 concentration −7.0): 0.932
- Percent Growth (HL-60(TB); log10 concentration −7.0): 69%
- Mean Optical Densities (HL-60(TB); log10 concentration −8.0): 1.084
- Percent Growth (HL-60(TB); log10 concentration −8.0): 94%
- TGI (SK-MEL-28 [1]; SK-MEL-28 (Melanoma)): 8.70E−7
- Mean Optical Densities (SK-MEL-28 [1]; [5]): 0.114
- Percent Growth (SK-MEL-28 [1]; [5]): −62%
- Mean Optical Densities (SK-MEL-28 [1]; [6]): 0.198
- Percent Growth (SK-MEL-28 [1]; [6]): −34%
- Mean Optical Densities (SK-MEL-28 [1]; [7]): 0.284
- Percent Growth (SK-MEL-28 [1]; [7]): −6%
- Mean Optical Densities (SK-MEL-28 [1]; [8]): 0.733
- Percent Growth (SK-MEL-28 [1]; [8]): 85%
- Mean Optical Densities (SK-MEL-28 [1]; [9]): 0.816
- Percent Growth (SK-MEL-28 [1]; [9]): 102%
- GI50 (SK-MEL-28 [2]; SK-MEL-28): 245 nM
- CC50 (SK-MEL-28 [2]; SK-MEL-28, read-out: LC50): 37100 nM
- GI50 (ACHN): 233 nM
- CC50 (ACHN; read-out: LC50): > 100000 nM
- GI50 (SR): 75.8 nM
- CC50 (SR; read-out: LC50): > 100000 nM
- GI50 (HCT-15; HCT-15): 377 nM
- CC50 (HCT-15; HCT-15, read-out: LC50): > 100000 nM
- GI50 (OVCAR-8; OVCAR-8): 340 nM
- CC50 (OVCAR-8; OVCAR-8, read-out: LC50): > 100000 nM
- GI50 (NCI-H23; NCI-H23): 260 nM
- CC50 (NCI-H23; NCI-H23, read-out: LC50): > 100000 nM
- GI50 (SF-539; SF-539): 199 nM
- CC50 (SF-539; SF-539, read-out: LC50): 6850 nM
- TGI (SF-295; SF-295 (CNS Cancer)): 3.10E−5
- Mean Optical Densities (SF-295; [10]): 0.371
- Percent Growth (SF-295; [10]): −4%
- Mean Optical Densities (SF-295; [11]): 0.427
- Percent Growth (SF-295; [11]): 4%
- Mean Optical Densities (SF-295; [12]): 0.447
- Percent Growth (SF-295; [12]): 6%
- Mean Optical Densities (SF-295; [13]): 1.288
- Percent Growth (SF-295; [13]): 83%
- Mean Optical Densities (SF-295; [14]): 1.492
- Percent Growth (SF-295; [14]): 101%
- TGI (HCT-116; HCT-116 (Colon Cancer)): >1.00E−4
- Mean Optical Densities (HCT-116; [15]): 0.170
- Percent Growth (HCT-116; [15]): 1%
- Mean Optical Densities (HCT-116; [16]): 0.179
- Percent Growth (HCT-116; [16]): 2%
- Mean Optical Densities (HCT-116; [17]): 0.182
- Percent Growth (HCT-116; [17]): 2%
- Mean Optical Densities (HCT-116; [18]): 0.749
- Percent Growth (HCT-116; [18]): 62%
- Mean Optical Densities (HCT-116; [19]): 1.058
- Percent Growth (HCT-116; [19]): 95%
- TGI (NCI-H460 [3]; NCI-H460 (Non-Small Cell Lung Cancer)): 1.71E−5
- Mean Optical Densities (NCI-H460 [3]; [20]): 0.094
- Percent Growth (NCI-H460 [3]; [20]): −15%
- Mean Optical Densities (NCI-H460 [3]; [21]): 0.158
- Percent Growth (NCI-H460 [3]; [21]): 5%
- Mean Optical Densities (NCI-H460 [3]; [22]): 0.181
- Percent Growth (NCI-H460 [3]; [22]): 7%
- Mean Optical Densities (NCI-H460 [3]; [23]): 0.919
- Percent Growth (NCI-H460 [3]; [23]): 80%
- Mean Optical Densities (NCI-H460 [3]; [24]): 1.138
- Percent Growth (NCI-H460 [3]; [24]): 102%
- TGI (T-47D; T-47D (Breast Cancer)): 2.55E−6
- Mean Optical Densities (T-47D; log10 concentration −4.0): 0.479
- Percent Growth (T-47D; log10 concentration −4.0): −12%
- Mean Optical Densities (T-47D; log10 concentration −5.0): 0.516
- Percent Growth (T-47D; log10 concentration −5.0): −5%
- Mean Optical Densities (T-47D; log10 concentration −6.0): 0.565
- Percent Growth (T-47D; log10 concentration −6.0): 3%
- Mean Optical Densities (T-47D; log10 concentration −7.0): 1.199
- Percent Growth (T-47D; log10 concentration −7.0): 94%
- Mean Optical Densities (T-47D; log10 concentration −8.0): 1.266
- Percent Growth (T-47D; log10 concentration −8.0): 103%
- TGI (SK-MEL-2; SK-MEL-2 (Melanoma)): 8.22E−5
- Mean Optical Densities (SK-MEL-2; [25]): 1.061
- Percent Growth (SK-MEL-2; [25]): −1%
- Mean Optical Densities (SK-MEL-2; [26]): 1.218
- Percent Growth (SK-MEL-2; [26]): 12%
- Mean Optical Densities (SK-MEL-2; [27]): 1.290
- Percent Growth (SK-MEL-2; [27]): 18%
- Mean Optical Densities (SK-MEL-2; [28]): 2.275
- Percent Growth (SK-MEL-2; [28]): 99%
- Mean Optical Densities (SK-MEL-2; [29]): 2.282
- Percent Growth (SK-MEL-2; [29]): 100%
- GI50 (NCI-H460 [4]; NCI-H460): 258 nM
- CC50 (NCI-H460 [4]; NCI-H460, read-out: LC50): > 100000 nM
